{"source": "paper PMC7763892", "about": "“Anti-Inflammatory Effect of Homo- and Heterodimers of Natural Enkephalinase Inhibitors in Experimental Colitis in Mice” (Molecules, 2020)", "key": {"[1]": {"assay": "Stability in human plasma", "format": "in vitro ADME", "conditions": "RP-HPLC", "protocol": "Plasma-stability assays were performed, as described previously. The sample preparation and the analysis of peptide I were both performed in the same way as in our previous work. Peptides III and X were analyzed by RP-HPLC using a linear gradient of 20–80% B over 20 min with the same solvent system of 0.1% TFA in water (A) and 0.1% TFA in acetonitrile (B), with a flow rate of 1.5 mL/min. All measurements were performed in triplicate."}, "[2]": {"molecular_target": "neutral endopeptidase (NEP) (Homo sapiens, UniProt P08473)", "sequence (P08473 whole entry, species assumed)": "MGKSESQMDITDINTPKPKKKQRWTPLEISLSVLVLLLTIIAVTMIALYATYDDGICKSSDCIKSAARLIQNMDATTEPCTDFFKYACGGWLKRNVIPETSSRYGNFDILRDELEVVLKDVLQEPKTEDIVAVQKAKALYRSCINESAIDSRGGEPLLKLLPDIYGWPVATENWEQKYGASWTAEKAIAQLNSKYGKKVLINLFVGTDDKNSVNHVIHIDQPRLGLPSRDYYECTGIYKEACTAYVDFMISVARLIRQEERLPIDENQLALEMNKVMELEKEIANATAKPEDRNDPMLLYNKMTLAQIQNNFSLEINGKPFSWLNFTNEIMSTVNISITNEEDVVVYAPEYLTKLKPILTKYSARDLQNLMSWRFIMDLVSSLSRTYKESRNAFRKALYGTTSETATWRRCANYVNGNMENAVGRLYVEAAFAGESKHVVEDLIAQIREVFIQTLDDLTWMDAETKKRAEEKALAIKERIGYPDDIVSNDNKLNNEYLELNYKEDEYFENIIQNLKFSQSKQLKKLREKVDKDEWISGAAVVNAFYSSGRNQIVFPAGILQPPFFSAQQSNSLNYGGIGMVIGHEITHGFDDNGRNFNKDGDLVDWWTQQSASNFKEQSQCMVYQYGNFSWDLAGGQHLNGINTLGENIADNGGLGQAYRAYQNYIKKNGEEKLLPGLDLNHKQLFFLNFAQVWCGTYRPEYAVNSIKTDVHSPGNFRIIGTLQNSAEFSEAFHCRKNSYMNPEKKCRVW", "conditions": "Tris-HCl buffer 50 mM, pH 7.4, 37 °C, RP-HPLC, mean ± SEM, ref Sobocińska et al. [24], cited from earlier work"}, "[3]": {"assay": "Solubility in Tris-HCl buffer", "format": "physicochemical", "conditions": "Tris-HCl buffer + 3% DMSO", "protocol": "The designed dimers (peptides IX–XI) were sparingly soluble in Tris-HCl buffer. To improve their solubility in Tris-HCl buffer, 3% DMSO was added to the samples. […] In the time of analysis of spinorphin (III) and peptide IV, products with the same retention time as the analyzed substrate, were created, which made determining the inhibitory activity of the investigated peptides against NEP impossible."}, "[4]": {"conditions": "cited from earlier work", "protocol": "In stability assays in human plasma, peptide X was included because this compound was selected for in vivo assays of the anti-inflammatory activity. […] After 2 h of incubation, the levels of peptide X were, respectively, 10.3 and ..."}, "[5]": {"tested_on": "TNBS-induced colitis", "conditions": "mouse model; cited from earlier work"}, "[6]": {"conditions": "cited from earlier work", "remark": "listed apart in the source"}}, "note": "Where a SMILES comes first, the peptide text is derived from it.", "data": [{"compound": "CC(C)C[C@H](NC(=O)[C@@H](N)CSSC[C@H](N)C(=O)N[C@@H](CCC(N)=O)C(=O)N[C@@H](Cc1c[nH]cn1)C(=O)N[C@@H](CC(N)=O)C(=O)N1CCC[C@H]1C(=O)N[C@@H](CCCNC(=N)N)C(=O)O)C(=O)N[C@H](C(=O)N[C@H](C(=O)N[C@@H](Cc1ccc(O)cc1)C(=O)N1CCC[C@H]1C(=O)N[C@@H](Cc1c[nH]c2ccccc12)C(=O)N[C@H](C(=O)O)[C@@H](C)O)C(C)C)C(C)C", "note": "[Peptide X, Cys-Gln-His-Asn-Pro-Arg │ Cys-Leu-Val-Val-Tyr-Pro-Trp-Thr] (HELM PEPTIDE1{C.L.V.V.Y.P.W.T}|PEPTIDE2{C.Q.H.N.P.R}$PEPTIDE1,PEPTIDE2,1:R3-1:R3$$$V2.0)", "values": [{"measurement": "level of peptide in human plasma after 2 h relative to spinorphin", "setting": "[1]; 2 h incubation, times higher", "value": 4, "unit": "times"}, {"measurement": "remaining at 4 h", "setting": "[1]; 4 h incubation, triplicate, read-out: % of remaining peptide in human plasma after 4 h", "value": 42, "unit": "%"}, {"measurement": "remaining at 24 h", "setting": "[1]; 24 h incubation, triplicate, read-out: % of remaining peptide in human plasma after 24 h", "value": 8, "unit": "%"}]}, {"compound": "Gln-His-Asn-Pro-Arg [Peptide I, Sialorphin (Gln-His-Asn-Pro-Arg)]", "values": [{"measurement": "1000 × k, degradation rate of Met-enkephalin incubated with NEP and peptide", "setting": "[2]; without inhibitor 25.35 ± 1.05", "value": "8.84 ± 0.27 ** 1/min"}, {"measurement": "t1/2, half-life of Met-enkephalin incubated with NEP and peptide", "setting": "[2]; without inhibitor 27 ± 1", "value": "78 ± 2", "unit": "min"}]}, {"compound": "CC(C)C[C@H](NC(=O)[C@@H](N)CSSC[C@H](N)C(=O)N[C@@H](CC(C)C)C(=O)N[C@H](C(=O)N[C@H](C(=O)N[C@@H](Cc1ccc(O)cc1)C(=O)N1CCC[C@H]1C(=O)N[C@@H](Cc1c[nH]c2ccccc12)C(=O)N[C@H](C(=O)O)[C@@H](C)O)C(C)C)C(C)C)C(=O)N[C@H](C(=O)N[C@H](C(=O)N[C@@H](Cc1ccc(O)cc1)C(=O)N1CCC[C@H]1C(=O)N[C@@H](Cc1c[nH]c2ccccc12)C(=O)N[C@H](C(=O)O)[C@@H](C)O)C(C)C)C(C)C", "note": "[IX, (Cys-Leu-Val-Val-Tyr-Pro-Trp-Thr)2] (HELM PEPTIDE1{C.L.V.V.Y.P.W.T}|PEPTIDE2{C.L.V.V.Y.P.W.T}$PEPTIDE1,PEPTIDE2,1:R3-1:R3$$$V2.0)", "values": [{"measurement": "solubility in Tris-HCl buffer with 3% DMSO", "setting": "[3]", "value": "did not help to dissolve"}]}, {"compound": "Sialorphin (Gln-His-Asn-Pro-Arg) [Peptide I]", "values": [{"measurement": "remaining peptide in human plasma after 4 h", "setting": "[4]; 4 h incubation, RP-HPLC, ref Sobocinska et al. [21]", "value": "completely decomposed"}, {"measurement": "stability in human plasma", "setting": "[4]", "value": "sensitive to degradation"}, {"measurement": "anti-inflammatory effect in TNBS-induced colitis", "setting": "[5]", "value": "potent anti-inflammatory activity"}]}, {"compound": "Pal-KKQRFSR", "values": [{"measurement": "anti-inflammatory effect in TNBS-induced colitis", "setting": "[5]", "value": "lack of a anti-inflammatory effect"}]}, {"compound": "Opiorphin (Gln-Arg-Phe-Ser-Arg) [II]", "values": [{"measurement": "amount that disappears in human plasma because of potential complex formation", "setting": "[6]", "value": 12, "unit": "%"}, {"measurement": "metabolic half-life in human plasma", "setting": "[6]", "value": 5, "unit": "min"}, {"measurement": "disappearance in human plasma by cyclization of Gln1 to Glp", "setting": "[6]; maximum", "value": "≤ 16", "unit": "%"}, {"measurement": "anti-inflammatory effect in TNBS-induced colitis", "setting": "[5]", "value": "lack of a anti-inflammatory effect"}]}, {"compound": "CC(C)C[C@H](N)C(=O)N[C@H](C(=O)N[C@H](C(=O)N[C@@H](Cc1ccc(O)cc1)C(=O)N1CCC[C@H]1C(=O)N[C@@H](Cc1c[nH]c2ccccc12)C(=O)N[C@H](C(=O)O)[C@@H](C)O)C(C)C)C(C)C", "note": "[III, Spinorphin (Leu-Val-Val-Tyr-Pro-Trp-Thr)] (H-LVVYPWT-OH)", "values": [{"measurement": "% of remaining peptide in human plasma after 4 h", "setting": "[1]; 4 h incubation, triplicate", "value": "completely decomposed"}]}]}
